The values that follow come from patent publication US20130065868A1, “ANXIOYTIC MARCGRAVIACEAE COMPOSITIONS CONTAINING BETULINIC ACID, BETULINIC ACID DERIVATIVES, AND METHODS” (UNIVERSITY OF OTTAWA, priority 2002, published 2013).

The subject of one series is Sprague-Dawley rats. The series is described as follows: Elevated plus-maze (EPM) test in rats. The settings on record: 1 mg/kg in peanut oil orally (gavage), 45-60 min after treatment, vs peanut oil (FIG. 3). The format is in vivo, rat. How it is done:
The majority of tests described in the following examples were conducted on adult; male Sprague-Dawley rats (typically weighing ˜300-450 gm) were obtained from Charles River Canada, St. Constant, Quebec. They were individually housed in standard clear Plexiglas cages (24×30×18 cm) and maintained on a 12 hr light/dark cycle (7:00 A.M.-7:00 P.M. light phase) in a temperature and humidity controlled room. Unless indicated otherwise, animals had free access to water and maintained on a restricted diet of 5 pellets a day of Purina Lab Chow. All experimental procedures complied with the guidelines of the Canadian Council on Animal Care and were approved by the Research Ethics Committee at the University of Ottawa. […]
The EPM constitutes of a plus-shaped maze with two enclosed arms (or alleys; 50×10×40 cm) and two open arms (or planks; 50×10 cm), with a 10×10 cm central zone. […] To avoid distractions, the EPM was surrounded by black curtain and the subjects were monitored remotely, using a closed circuit camera mounted above the set-up.
The rats were randomly assigned to each of the drug conditions. […] Behaviours scored included time spent in the open arms of the maze, time spent in the closed arms of the maze, number of entries into the open-arms and number of entries into the closed arm of the maze. […]

Another series has as its system CD-1 strain of mice. The series is described as follows: Elevated plus maze test in CD-1 mice. The settings on record: for entries into the open (anxiogenic) arm of the elevated plus maze: 45-60 min, vs peanut oil control. The class given is in vivo, mouse. How it is done: Previous experiments were all conducted in experimental rats. Here we tested the effect of betulinic acid on CD-1 strain of mice. Mice received 0.25 or 2.5 mg/kg of betulinic acid, or peanut oil only (control), intra peritoneally (“i.p.”), and were tested 45-60 minutes later in the elevated plus maze test.

The test system of a further series is BALB/c mice. The experiment in a line: Elevated plus maze test in BALB/c mice. The format is in vivo, mouse. The settings on record: vs peanut oil only control. From the text:
BALB/c mice represent a strain of mice that is very stress-reactive.
Mice received dosages of betulinic acid in accordance with the previous example.

In a further series the test system is Sprague Dawley rats. The experiment in a line: Locomotor activity after chronic administration. The settings on record: chronic 0.5 mg/kg daily orally, one night 5 p.m. to 7 a.m. (FIG. 11). The class given is in vivo, rat. How it is done:
Test animals and drug treatments were as in Example 14. Locomotor activity was recorded for one night (5 p.m. to 7 a.m. the following morning) in the control as well as in the betulinic acid and methyl ester of betulinic acid exposed groups. Locomotor activity was monitored using infrared sensors located on the roof of the animals' cage. Eight independent sensors monitored activity of animals according to the number of quadrants traversed.

Series [1] in a line: Acute or chronic toxicity at repeated doses. The format is in vivo. The settings on record: 500 mg/kg vs anxiolytic dose. From the text: This is a dose 1000 times higher than that needed to reduce anxiety.
Another series deals with MAO B (Homo sapiens, UniProt P27338). The experiment in a line: MDS Panlabs screen: MAO B. The format is biochemical. As to conditions: Catecholamines. How it is done:
(§1) Tests were conducted by MDS Panlabs to determine whether any of the classical neurotransmitter systems or the peptidergic systems thought to play a role in anxiety are affected by betulinic acid.

Another series concerns the target GABAB (Homo sapiens, UniProt Q9UBS5). The experiment in a line: MDS Panlabs screen: GABAB. The settings on record: Gabaergic. The format is binding. How it is done:
as §1

Another series has as its target Histamine H1 (Homo sapiens, UniProt P35367). The experiment in a line: MDS Panlabs screen: Histamine H1. The format is binding. How it is done:
as §1

The next series concerns the target Histamine H2 (Homo sapiens, UniProt P25021). The experiment in a line: MDS Panlabs screen: Histamine H2. The class given is binding. How it is done:
as §1

For another series, the system named is 5-HT2. The experiment in a line: MDS Panlabs screen: 5-HT2. The class given is binding. As to conditions: Serotonin (5-HT). How it is done: as §1
In a further series the target is cannabinoid C131 (Homo sapiens, UniProt P21554). The experiment in a line: MDS Panlabs screen: cannabinoid (first subtype). As to conditions: Peptides. The format is binding. How it is done:
as §1

In the next series the target is GLP-1 (Homo sapiens, UniProt P43220). The series is described as follows: MDS Panlabs screen: GLP-1. The class given is binding. The settings on record: Peptides. How it is done:
as §1

Another series has as its target melanocortin MC4 (Homo sapiens, UniProt P32245). The experiment in a line: MDS Panlabs screen: melanocortin MC4. The format is binding. As to conditions: Peptides. How it is done: as §1
The test system of the next series is TNF non-selective. The series is described as follows: MDS Panlabs screen: TNF non-selective. The format is binding. The settings on record: Peptides. How it is done: as §1
A further series deals with COX-2 (Homo sapiens, UniProt P35354). The series is described as follows: MDS Panlabs screen: cyclooxygenase COX-2. The class given is biochemical. How it is done: as §1
Sequence of COX-2 (P35354 18-604): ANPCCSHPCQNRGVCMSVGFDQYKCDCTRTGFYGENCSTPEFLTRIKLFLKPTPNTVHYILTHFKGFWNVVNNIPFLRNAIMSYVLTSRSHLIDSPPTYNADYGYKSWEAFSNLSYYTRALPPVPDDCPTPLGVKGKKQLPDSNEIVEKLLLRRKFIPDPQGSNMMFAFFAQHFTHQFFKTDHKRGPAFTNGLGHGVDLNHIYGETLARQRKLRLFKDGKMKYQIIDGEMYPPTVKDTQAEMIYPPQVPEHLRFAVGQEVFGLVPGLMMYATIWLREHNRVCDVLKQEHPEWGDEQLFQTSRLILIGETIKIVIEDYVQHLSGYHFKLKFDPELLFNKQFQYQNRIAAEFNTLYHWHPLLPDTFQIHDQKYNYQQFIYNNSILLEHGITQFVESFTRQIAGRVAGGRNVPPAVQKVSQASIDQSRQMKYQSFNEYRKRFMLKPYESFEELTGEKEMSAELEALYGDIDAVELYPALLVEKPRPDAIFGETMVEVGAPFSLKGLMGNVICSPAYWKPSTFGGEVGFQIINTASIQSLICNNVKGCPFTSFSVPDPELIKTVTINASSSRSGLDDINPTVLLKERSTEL

Sequence of melanocortin MC4 (P32245 whole entry): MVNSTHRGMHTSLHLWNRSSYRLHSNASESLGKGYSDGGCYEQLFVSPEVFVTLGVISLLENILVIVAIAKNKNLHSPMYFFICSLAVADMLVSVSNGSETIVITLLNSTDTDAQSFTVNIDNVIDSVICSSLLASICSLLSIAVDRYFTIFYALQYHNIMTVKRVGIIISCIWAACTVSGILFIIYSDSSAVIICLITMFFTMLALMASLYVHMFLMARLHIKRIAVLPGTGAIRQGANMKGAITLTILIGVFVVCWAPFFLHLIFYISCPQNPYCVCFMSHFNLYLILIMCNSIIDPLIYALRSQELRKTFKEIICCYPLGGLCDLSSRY
Sequence of Histamine H2 (P25021 whole entry): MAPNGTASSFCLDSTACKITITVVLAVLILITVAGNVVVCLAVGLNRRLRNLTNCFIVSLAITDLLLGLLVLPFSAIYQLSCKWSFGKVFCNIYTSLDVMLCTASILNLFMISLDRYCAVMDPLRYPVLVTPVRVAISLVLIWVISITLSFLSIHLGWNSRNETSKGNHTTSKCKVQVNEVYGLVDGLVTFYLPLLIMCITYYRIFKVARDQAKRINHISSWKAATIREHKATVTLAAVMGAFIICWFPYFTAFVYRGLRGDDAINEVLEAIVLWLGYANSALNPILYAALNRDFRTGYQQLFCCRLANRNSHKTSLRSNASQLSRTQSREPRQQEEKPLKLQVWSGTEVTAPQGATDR
Sequence of GLP-1 (P43220 24-463): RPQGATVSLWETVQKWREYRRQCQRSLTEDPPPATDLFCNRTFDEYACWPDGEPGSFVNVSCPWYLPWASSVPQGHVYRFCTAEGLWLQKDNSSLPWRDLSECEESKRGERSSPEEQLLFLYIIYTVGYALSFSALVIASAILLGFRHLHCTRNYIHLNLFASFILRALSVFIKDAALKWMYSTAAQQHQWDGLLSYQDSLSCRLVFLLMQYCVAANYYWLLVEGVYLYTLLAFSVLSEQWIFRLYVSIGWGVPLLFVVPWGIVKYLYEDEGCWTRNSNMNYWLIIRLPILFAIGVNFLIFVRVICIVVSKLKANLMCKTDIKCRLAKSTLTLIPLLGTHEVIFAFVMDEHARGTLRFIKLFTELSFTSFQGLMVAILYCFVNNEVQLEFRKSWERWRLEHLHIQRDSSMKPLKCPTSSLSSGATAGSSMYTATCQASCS
Sequence of cannabinoid C131 (P21554 whole entry): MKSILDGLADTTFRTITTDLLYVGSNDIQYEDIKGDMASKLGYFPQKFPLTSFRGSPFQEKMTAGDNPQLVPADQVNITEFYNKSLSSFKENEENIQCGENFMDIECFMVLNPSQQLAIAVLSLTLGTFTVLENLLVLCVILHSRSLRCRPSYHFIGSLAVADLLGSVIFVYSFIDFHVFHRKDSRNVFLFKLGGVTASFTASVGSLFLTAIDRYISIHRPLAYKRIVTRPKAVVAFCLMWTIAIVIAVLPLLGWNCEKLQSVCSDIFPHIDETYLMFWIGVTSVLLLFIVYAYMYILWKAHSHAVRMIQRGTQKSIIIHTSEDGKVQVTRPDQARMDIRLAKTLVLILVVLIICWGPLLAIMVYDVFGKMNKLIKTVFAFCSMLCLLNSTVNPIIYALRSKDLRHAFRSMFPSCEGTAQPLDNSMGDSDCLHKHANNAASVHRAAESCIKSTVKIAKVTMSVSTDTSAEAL
Sequence of GABAB (Q9UBS5 15-961 limits assumed): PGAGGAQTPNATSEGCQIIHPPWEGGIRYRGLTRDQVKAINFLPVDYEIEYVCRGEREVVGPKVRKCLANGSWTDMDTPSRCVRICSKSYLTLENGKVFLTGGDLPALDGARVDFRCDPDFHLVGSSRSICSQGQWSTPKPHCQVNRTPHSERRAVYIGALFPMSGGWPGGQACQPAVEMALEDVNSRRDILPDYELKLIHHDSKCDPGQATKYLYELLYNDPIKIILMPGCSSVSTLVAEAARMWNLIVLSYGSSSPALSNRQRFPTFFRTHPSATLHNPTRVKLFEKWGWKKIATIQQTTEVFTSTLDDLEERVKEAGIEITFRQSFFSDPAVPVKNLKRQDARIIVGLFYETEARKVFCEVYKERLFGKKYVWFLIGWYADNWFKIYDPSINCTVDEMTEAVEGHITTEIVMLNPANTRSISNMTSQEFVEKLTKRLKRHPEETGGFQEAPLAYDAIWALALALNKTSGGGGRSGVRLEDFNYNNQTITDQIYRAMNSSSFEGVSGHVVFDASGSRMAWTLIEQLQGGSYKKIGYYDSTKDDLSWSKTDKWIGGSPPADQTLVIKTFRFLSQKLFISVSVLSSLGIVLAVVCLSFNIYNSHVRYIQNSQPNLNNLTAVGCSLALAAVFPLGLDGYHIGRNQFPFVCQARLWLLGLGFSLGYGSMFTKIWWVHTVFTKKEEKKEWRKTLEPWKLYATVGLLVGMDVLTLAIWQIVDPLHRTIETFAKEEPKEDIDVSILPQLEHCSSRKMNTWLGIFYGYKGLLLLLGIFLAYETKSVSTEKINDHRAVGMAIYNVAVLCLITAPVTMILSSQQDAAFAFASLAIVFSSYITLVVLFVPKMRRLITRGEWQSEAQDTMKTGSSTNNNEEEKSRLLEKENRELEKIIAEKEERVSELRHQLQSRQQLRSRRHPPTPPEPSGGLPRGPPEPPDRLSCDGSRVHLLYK
Sequence of GABAB (O75899 42-941 partner): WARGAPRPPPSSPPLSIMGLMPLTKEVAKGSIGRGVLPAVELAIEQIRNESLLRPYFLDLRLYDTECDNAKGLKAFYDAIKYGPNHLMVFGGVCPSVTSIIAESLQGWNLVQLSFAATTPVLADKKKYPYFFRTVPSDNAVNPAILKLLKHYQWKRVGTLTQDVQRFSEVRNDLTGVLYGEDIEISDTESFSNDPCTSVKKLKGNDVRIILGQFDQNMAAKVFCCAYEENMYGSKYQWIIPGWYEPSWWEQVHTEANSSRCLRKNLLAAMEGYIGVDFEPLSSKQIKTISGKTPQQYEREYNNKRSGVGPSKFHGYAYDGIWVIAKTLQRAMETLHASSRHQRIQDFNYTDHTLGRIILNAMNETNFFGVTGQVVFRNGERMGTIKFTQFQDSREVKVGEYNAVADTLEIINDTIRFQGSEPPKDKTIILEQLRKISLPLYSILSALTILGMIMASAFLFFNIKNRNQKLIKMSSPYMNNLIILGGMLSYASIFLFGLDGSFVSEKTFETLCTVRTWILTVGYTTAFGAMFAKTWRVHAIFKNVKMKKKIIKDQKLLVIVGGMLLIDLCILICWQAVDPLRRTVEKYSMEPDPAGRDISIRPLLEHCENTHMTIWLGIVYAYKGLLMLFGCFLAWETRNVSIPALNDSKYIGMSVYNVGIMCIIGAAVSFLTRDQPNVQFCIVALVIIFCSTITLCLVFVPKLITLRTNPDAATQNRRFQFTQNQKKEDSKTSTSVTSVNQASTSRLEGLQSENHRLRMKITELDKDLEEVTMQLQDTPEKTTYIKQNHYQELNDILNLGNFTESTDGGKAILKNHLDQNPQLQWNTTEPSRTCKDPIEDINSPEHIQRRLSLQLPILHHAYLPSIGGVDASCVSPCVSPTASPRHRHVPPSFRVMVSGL
Sequence of Histamine H1 (P35367 whole entry): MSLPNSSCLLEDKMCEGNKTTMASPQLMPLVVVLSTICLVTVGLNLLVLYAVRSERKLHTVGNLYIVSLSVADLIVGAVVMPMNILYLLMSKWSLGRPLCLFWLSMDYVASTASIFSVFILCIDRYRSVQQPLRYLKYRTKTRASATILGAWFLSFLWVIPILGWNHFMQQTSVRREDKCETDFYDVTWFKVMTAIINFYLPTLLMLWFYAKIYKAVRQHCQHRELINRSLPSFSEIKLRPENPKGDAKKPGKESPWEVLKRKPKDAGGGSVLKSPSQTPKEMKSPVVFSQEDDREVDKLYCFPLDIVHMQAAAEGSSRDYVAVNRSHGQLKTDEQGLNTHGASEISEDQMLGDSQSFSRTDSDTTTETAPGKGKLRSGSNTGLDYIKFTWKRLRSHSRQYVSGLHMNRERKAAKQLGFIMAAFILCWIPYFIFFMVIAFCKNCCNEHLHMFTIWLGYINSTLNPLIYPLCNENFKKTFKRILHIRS

Turning to `C=C(C)[C@@H]1CC[C@]2(C(=O)O)CC[C@]3(C)C(CC[C@@H]4[C@@]5(C)CC[C@H](O)C(C)(C)[C@@H]5CC[C@]43C)[C@@H]12` (stereo partly drawn) [betulinic acid, Betulinic acid], in the series with Sprague-Dawley rats, the “time spent on the open arms of the plus-maze” value is recorded as “spent significantly more time on the open arms of the plus-maze”. For the same compound, the “entries into the open (anxiogenic) arm of the elevated plus maze” value is “more often than controls” with CD-1 strain of mice (CD-1 mice, 0.25 mg/kg i.p.) and “more often than controls” in the series with CD-1 strain of mice (CD-1 mice, 2.5 mg/kg i.p.). For the same compound, the “proportion of time spent on the open arm of the maze” value with CD-1 strain of mice (CD-1 mice, 0.25 or 2.5 mg/kg i.p. (dose not singled out in the sentence)) is on record as “increased significantly”. For the same compound, the maximally effective dose with CD-1 strain of mice (mice, i.p., elevated plus maze, higher dose did not increase the effect further) came to 0.25 mg/kg. Besides, the “number of entries on the open arm of the elevated plus maze” value in the series with BALB/c mice (0.25 mg/kg i.p.) and in the series with BALB/c mice (2.5 mg/kg i.p.) was “significantly increased” throughout. Also, the “proportion of time spent on the open arm of the elevated plus maze” value in the series on BALB/c mice (0.25 mg/kg i.p.) and in the series with BALB/c mice (2.5 mg/kg i.p.) was “significantly increased” throughout. In addition, the “adverse effect on locomotor activity or pattern” value with Sprague Dawley rats was “neither betulinic acid nor the methyl ester of betulinic acid had an adverse effect on locomotor activity or pattern”. Also, the “non-toxic dose relative to the dose needed to reduce anxiety” value in [1] was determined as 1000 times. In addition, the “affected by betulinic acid” value at MAO B, at GABAB, at Histamine H1, at Histamine H2, in the series on 5-HT2 and at cannabinoid C131 was “none of the following neurotransmitters or proteins were affected” throughout. Further, the “affected by betulinic acid” value on GLP-1, on melanocortin MC4, in the series with TNF non-selective and at COX-2 was “none of the following neurotransmitters or proteins were affected” throughout.
